Source: ChEMBL document CHEMBL1201862, “PubChem BioAssay data set” (2004)
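How tested: cells in 96-well plates exposed to compound for 48 hours at five concentrations. Here, GI50 denotes the concentration required for 50% inhibition of growth.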 The source made the active and inactive calls. No stated cut-off is given here; in the data, active = GI50 up to about 1.1 µM and inactive = higher. Where a SMILES comes first, the peptide text is derived from it. [ ]: non-standard residue; d: D form. Phe(4-Cl) = N[CH](Cc1ccc(Cl)cc1)C(=O)O

How the values were obtained:
Test in all cases: DTP human tumour cell line panel, 48 h
[1] = test system: OVCAR-5
[2] = test system: SF-268
[3] = test system: CCRF-CEM
[4] = test system: A549
[5] = test system: SN12C
[6] = test system: KM-20L2
[7] = test system: SNB-78
[8] = test system: SF-539
[9] = test system: SW-620
[10] = test system: M19-MEL
[11] = test system: SK-MEL-28
[12] = test system: SF-295
[13] = test system: HT-29
[14] = test system: LXFL 529
[15] = test system: HOP-92
[16] = test system: SNB-19
[17] = test system: K562
[18] = test system: HCT-116
[19] = test system: HL-60
[20] = test system: XF498
[21] = test system: UACC-62
[22] = test system: RXF 631
[23] = test system: NCI-H522
[24] = test system: NCI-H460
[25] = test system: MOLT-4
[26] = test system: IGROV-1
[27] = test system: OVCAR-4
[28] = test system: COLO 205
[29] = test system: CAKI-1
[30] = test system: LOX IMVI
[31] = test system: NCI-H23
[32] = test system: M14
[33] = test system: NCI-H226
[34] = test system: 786-0
[35] = test system: U-251
[36] = test system: RXF 393
[37] = test system: DMS-114
[38] = test system: SK-MEL-5
[39] = test system: OVCAR-8
[40] = test system: ACHN
[41] = test system: SR
[42] = test system: UO-31
[43] = test system: HOP-62
[44] = test system: SNB-75
[45] = test system: KM12
[46] = test system: OVCAR-3
[47] = test system: HCC 2998
[48] = test system: Malme-3M
[49] = test system: UACC-257
[50] = test system: DLD-1
[51] = test system: DMS-273
[52] = test system: SK-OV-3
[53] = test system: RPMI-8226
[54] = test system: HCT-15
[55] = test system: A498
[56] = test system: SK-MEL-2
[57] = test system: EKVX

`N=C(N)N/N=C(/c1nc2ccc([N+](=O)[O-])cc2[nH]c1=O)C(O)c1ccc([N+](=O)[O-])cc1` (stereo unspecified) was tested, and the GI50 [1] was > 100 µM (inactive), the GI50 [2] was > 100 µM (inactive) and the GI50 [3] was > 100 µM (inactive). The GI50 [4] was 60.8 µM (inactive), the GI50 [5] was > 100 µM (inactive) and the GI50 [6] was 18 µM (inactive). The GI50 [7] was > 100 µM (inactive), the GI50 [8] was 31.3 µM (inactive) and the GI50 [9] was > 100 µM (inactive). The GI50 [10] was > 100 µM (inactive), the GI50 [11] was 78.5 µM (inactive) and the GI50 [12] was > 100 µM (inactive). The GI50 [13] was 54.1 µM (inactive), the GI50 [14] was 30.8 µM (inactive) and the GI50 [15] was > 100 µM (inactive). For the same compound, the GI50 [16] was > 100 µM (inactive), the GI50 [17] was > 100 µM (inactive) and the GI50 [18] was > 100 µM (inactive). The GI50 [19] was > 100 µM (inactive), the GI50 [20] was 40 µM (inactive) and the GI50 [21] was 15.7 µM (inactive). The GI50 [22] was > 100 µM (inactive), the GI50 [23] was 4.54 µM (inactive) and the GI50 [24] was 51.3 µM (inactive). For the same compound, the GI50 [25] was > 100 µM (inactive), the GI50 [26] was > 100 µM (inactive) and the GI50 [27] was > 100 µM (inactive). For the same compound, the GI50 [28] was 79.8 µM (inactive), the GI50 [29] was 28.4 µM (inactive) and the GI50 [30] was 38.5 µM (inactive). For the same compound, the GI50 [31] was > 100 µM (inactive), the GI50 [32] was 79.3 µM (inactive) and the GI50 [33] was > 100 µM (inactive). The GI50 [34] was > 100 µM (inactive), the GI50 [35] was 67.3 µM (inactive) and the GI50 [36] was > 100 µM (inactive). The GI50 [37] was 8.28 µM (inactive), the GI50 [38] was 37.5 µM (inactive) and the GI50 [39] was > 100 µM (inactive). The GI50 [40] was 21.3 µM (inactive), the GI50 [41] was > 100 µM (inactive) and the GI50 [42] was 3.03 µM (inactive). For the same compound, the GI50 [43] was 37.8 µM (inactive), the GI50 [44] was 86.1 µM (inactive) and the GI50 [45] was 36.1 µM (inactive). The GI50 [46] was 94.2 µM (inactive), the GI50 [47] was 28.5 µM (inactive) and the GI50 [48] was 83.8 µM (inactive). The GI50 [49] was > 100 µM (inactive), the GI50 [50] was 87.3 µM (inactive) and the GI50 [51] was 55.7 µM (inactive). The GI50 [52] was > 100 µM (inactive), the GI50 [53] was > 100 µM (inactive) and the GI50 [54] was 11.5 µM.
In the case of `CC(O)C(NC(=O)C(Cc1ccccc1)NC(=O)C(NC(=O)C(CCCCN)NC(=O)C(Cc1c[nH]c2ccccc12)NC(=O)C(Cc1ccc(O)cc1)NC(=O)C(Cc1ccc(Cl)cc1)NC(=O)C(N)Cc1ccccc1)C(C)O)C(N)=O` (stereo unspecified) (H-F[Phe(4-Cl)]YWKTFT-NH2; configuration not given here), the GI50 [3] is reported as 15.8 µM (inactive), the GI50 [4] is reported as 16.2 µM (inactive) and the GI50 [5] is reported as 41.8 µM (inactive). For the same compound, the GI50 [6] was 21.2 µM (inactive), the GI50 [7] was 25.4 µM (inactive) and the GI50 [8] was 20 µM (inactive). For the same compound, the GI50 [10] was 21.5 µM (inactive), the GI50 [11] was 20.7 µM (inactive) and the GI50 [12] was 8.53 µM (inactive). The GI50 [13] was 23.4 µM (inactive), the GI50 [14] was 18.4 µM (inactive) and the GI50 [16] was 18.4 µM (inactive). The GI50 [17] was 15.6 µM (inactive), the GI50 [18] was 18.9 µM (inactive) and the GI50 [19] was 15.3 µM (inactive). For the same compound, the GI50 [20] was 14.2 µM (inactive), the GI50 [21] was 19.1 µM (inactive) and the GI50 [22] was 19.4 µM (inactive). For the same compound, the GI50 [24] was 13.7 µM (inactive), the GI50 [25] was 25.9 µM (inactive) and the GI50 [26] was 19.9 µM (inactive). The GI50 [27] was 23.9 µM (inactive), the GI50 [28] was 25.9 µM (inactive) and the GI50 [29] was 21.2 µM (inactive). For the same compound, the GI50 [31] was 19.8 µM (inactive), the GI50 [32] was 22.7 µM (inactive) and the GI50 [55] was 18.8 µM (inactive). The GI50 [56] was 19.9 µM (inactive), the GI50 [34] was 22.4 µM (inactive) and the GI50 [35] was 18.7 µM (inactive). The GI50 [36] was 16 µM (inactive), the GI50 [37] was 17.3 µM (inactive) and the GI50 [39] was 23.9 µM (inactive). For the same compound, the GI50 [57] was 16.4 µM (inactive), the GI50 [40] was 21.9 µM (inactive) and the GI50 [42] was 19 µM (inactive). For the same compound, the GI50 [43] was 20.5 µM (inactive), the GI50 [44] was 21 µM (inactive) and the GI50 [45] was 13.5 µM (inactive). The GI50 [46] was 17.4 µM (inactive), the GI50 [47] was 25.4 µM (inactive) and the GI50 [49] was > 10 µM (inactive). The GI50 [50] was 20.3 µM (inactive), the GI50 [51] was 33 µM (inactive) and the GI50 [52] was 27.6 µM (inactive). For the same compound, the GI50 [53] was 14 µM (inactive) and the GI50 [54] was 17.9 µM.
